US8563706B2, “Efficient cell culture system for hepatitis C virus genotype 1A and 1B” (priority 2007, dated 2013)

What was measured:
[1] = tested on: JFH1 cultures or cultures with genotype 1a (H77), 1b (Con1) or 2a (J6) JFH1-based recombinants; conditions: previous studies; cited from earlier work
[2] = tested on: JFH1-based recombinants of genotypes 1a, 1b, 2a, 2b, and 6a; type: cell-based, hepatitis C virus
J6/JFH = conditions: previous studies; cited from earlier work

**Q.** Which “production of infectious virus (in words)” value [1] does the source give for `NC12CC3CC(CC(C3)C1)C2` [amantadine] here?
**A.** did not decrease production of infectious virus

**Q.** What about the “effect of treatment on infected cells and supernatant HCV RNA titers (in words)” value [2] of the same compound?
**A.** no apparent effect

**Q.** For `NC(=O)c1ncn([C@@H]2O[C@H](CO)[C@@H](O)[C@H]2O)n1` [ribavirin], which “production of infectious virus (in words)” value [1] is on record?
**A.** did not decrease production of infectious virus

**Q.** And the “effect of treatment on infected cells and supernatant HCV RNA titers (in words)” value [2]?
**A.** no apparent effect

**Q.** What does the source list for interferon-α2b?
**A.** replication of J6/JFH (in words) (J6/JFH): decreased replication; decrease in supernatant HCV RNA titers [2]: ~2 log; decrease in the number of infected cells [2]: > 60%
